pKd: −log10 of the molar value. Read-outs that look alike come from different tables or passages of the source.
How the values were obtained:
[1] = target: T1, Recombinant human galectin-3 (Homo sapiens, UniProt P17931); experiment: fluorescence polarization-based galectin-3 inhibition assay; format: binding; conditions: for pKd: read-out: Calculated Kd
T1 construct: made in house; host or cells: Escherichia coli
Method: NMR-spectra were recorded with a Bruker DRX-400 instrument. Chemical shifts are given in ppm, with reference to internal residual solvent peaks. Chemical shifts and coupling constants were obtained from ^1H-NMR and proton resonances were assigned from COSY experiments. High-resolution FAB mass spectra (HRMS) were recorded with a JEOL SX-120 instrument. Fluorescence polarization experiments were performed on a PolarStar instrument (BMG, Offenburg; Germany). Column chromatography was performed on SiO2 (Matrex, 60 Å, 35-70 μm, Grace Amicon) and TLC was carried out on SiO2 60 F254 (Merck) with detection under UV light and developed with aqueous sulfuric acid. Concentrations were made using rotary evaporation with bath temperature at or below 40° C. CH2Cl2 and CH3CN were dried by distillation from CaH2. Microwell plates were from Costar, Corning, N.Y. (black polystyrene). Recombinant human galectin-3 was produced in Escherichia coli and purified as previously described (S. M. Massa et al, 1993). PBS was 118 mM NaCl, 67 mM Na/K-phosphate, pH 7.2, 2 mM EDTA, 4 mM β-mercaptoethanol.
To 100 μL of galectin-3 (1 μM) and a fluorescent probe (2-(fluorescein-5/6-yl-carbonyl)-aminoethyl 4-O-[3-O-(4-methoxy]benzyl)-β-D-galactopyranosyl]-β-D-glucopyranoside, 0.1 μM) were added inhibitor solution (3.2-10000 μM, 100 μL), the plate was incubated under slow rotary shaking in the dark for 5 minutes, and fluorescence polarization measured at room temperature. The fluorescence was measured from above in 96 well microtiter plates (black polystyrene, Costar, Corning, N.Y.) using a PolarStar instrument (BMG, Offenburg; Germany). Control wells containing only fluorescent probe or fluorescein were included. All dilutions and measurements were done in PBS.

galectins = conditions: cited from earlier work
[2] = galectin-3, fluorescence polarization

T1 sequence (P17931 whole entry): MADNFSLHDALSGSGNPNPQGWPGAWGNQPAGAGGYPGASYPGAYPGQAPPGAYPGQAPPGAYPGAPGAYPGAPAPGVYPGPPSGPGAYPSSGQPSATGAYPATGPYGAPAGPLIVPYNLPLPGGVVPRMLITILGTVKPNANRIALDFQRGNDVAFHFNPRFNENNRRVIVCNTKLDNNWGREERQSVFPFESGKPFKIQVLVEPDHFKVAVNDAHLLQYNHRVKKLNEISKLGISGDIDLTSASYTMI

CNC(=O)c1cn([C@H]2[C@@H](O)[C@@H](CO)O[C@@H](S[C@@H]3O[C@H](CO)[C@H](O)[C@H](n4cc(C(=O)NC)nn4)[C@H]3O)[C@@H]2O)nn1 [Compound 26, Bis-(3-deoxy-3-{4-[(methylamino)carbonyl]-1H-1,2,3-triazol-1-yl}-β-D-galactopyranosyl)sulfane]
Kd ([1]; galectin-3, fluorescence polarization, value given in text in nM, read-out: Kd): 150 nM

CCCCNC(=O)c1cn(C2C(O)[C@H](SC)OC(CO)[C@@H]2O)nn1 (stereo partly drawn) [Compound 15, Methyl 3-(4-butylaminocarbonyl-1H-[1,2,3]-triazol-1′-yl)-3-deoxy-1-thio-β-D-galactopyranoside]
improvement in Kd in comparison with the reference inhibitor 27 [1, 2]: 50 fold | pKd [1]: 3.91

CS[C@@H]1O[C@H](CO)[C@H](O)[C@H](n2cc(C(=O)NCc3ccccc3)nn2)[C@H]1O [Compound 16, Methyl 3-(4-benzylaminocarbonyl-1H-[1,2,3]-triazol-1-yl)-3-deoxy-1-thio-β-D-galactopyranoside]
improvement in Kd in comparison with the reference inhibitor 27 [1, 2]: 50 fold

CCCc1cn([C@H]2[C@@H](O)[C@@H](CO)O[C@@H](SC)[C@@H]2O)nn1 [Compound 9, Methyl 3-deoxy-3-(4-propyl-1H-[1,2,3]-triazol-1-yl)-1-thio-β-D-galactopyranoside]
pKd [1]: 2.34

CS[C@@H]1O[C@H](CO)[C@H](O)[C@H](n2cc(-c3ccccc3)nn2)[C@H]1O [Compound 12, Methyl 3-deoxy-3-(4-phenyl-1H-[1,2,3]-triazol-1-yl)-1-thio-β-D-galactopyranoside]
improvement in Kd in comparison with the reference inhibitor 27 [1, 2]: 50 fold | pKd [1]: 3.83

CS[C@@H]1O[C@H](CO)[C@H](O)[C@H](n2cc(S(=O)(=O)c3ccc(C)cc3)nn2)[C@H]1O [Compound 13, Methyl 3-deoxy-3-(4-p-tolylsulfonyl-1H-[1,2,3]-triazol-1-yl)-1-thio-β-D-galactopyranoside]
improvement in Kd in comparison with the reference inhibitor 27 [1, 2]: 50 fold | pKd [1]: 3.85

O=C[C@H](O)[C@@H](O)[C@@H](O)[C@H](O)CO [D-galactose]
affinity lower than lactose (galectins; galectins, relative to lactose): 50-100 times

COC(=O)c1cn([C@H]2[C@@H](O)[C@@H](CO)O[C@@H](SC)[C@@H]2O)nn1 [Compound 10, Methyl 3-(4-methoxycarbonyl-1H-[1,2,3]-triazol-1-yl)-3-deoxy-1-thio-β-D-galactopyranoside]
pKd [1]: 2.85

OC[C@H]1O[C@@H](O[C@H]2[C@H](O)[C@@H](O)C(O)O[C@@H]2CO)[C@H](O)[C@@H](O)[C@H]1O (some centres unmarked) [lactose]
pKd (galectins; all galectins, reviewed by Leffler, 2001 and Leffler et al., 2004): 3.00 to 3.30

CS[C@@H]1O[C@H](CO)[C@H](O)[C@H](n2ccnn2)[C@H]1O [Compound 8, Methyl 3-deoxy-3-(1H-[1,2,3]-triazol-1-yl)-1-thio-β-D-galactopyranoside]
pKd [1]: 1.68

CS[C@@H]1O[C@H](CO)[C@H](O)[C@H](n2cc(C3(O)CCCCC3)nn2)[C@H]1O [Compound 11, Methyl 3-deoxy-3-(4-(1-hydroxy-1-cyclohexyl)-1H-[1,2,3]-triazol-1-yl)-1-thio-β-D-galactopyranoside]
pKd [1]: 2.86

CS[C@@H]1O[C@H](CO)[C@H](O)[C@H](n2cc(C(=O)NCCCO)nn2)[C@H]1O [Compound 17, Methyl 3-{4-(3-hydroxyprop-1-ylaminocarbonyl)-1H-[1,2,3]-triazol-1-yl}-3-deoxy-1-thio-β-D-galactopyranoside]
pKd [1]: 3.41

CNC(=O)c1cn([C@H]2[C@@H](O)[C@@H](CO)O[C@@H](SC)[C@@H]2O)nn1 [Compound 14, Methyl 3-(4-methylaminocarbonyl-1H-[1,2,3]-triazol-1-yl)-3-deoxy-1-thio-β-D-galactopyranoside]
pKd ([1]; affinity for galectin-3 calculated from test by fluorescence polarization at one tested conc., galectin-3 1 μM, probe 0.1 μM, PBS, room temperature): 3.64

CS[C@@H]1OC(CO)[C@H](O)C(n2cc(C(=O)NCCN3CCOCC3)nn2)C1O (stereo partly drawn) [Compound 18, Methyl 3-{4-[2-(N-morpholino)-ethylaminocarbonyl]-1H-[1,2,3]-triazol-1-yl}-3-deoxy-1-thio-β-D-galactopyranoside]
pKd [1]: 3.24
